Patent US20260167637A1, “NLRP3 INFLAMMASOME INHIBITOR AND USE THEREOF” (TransThera Sciences (Nanjing), Inc., priority 2022, published 2026)
Read-outs that look alike come from different tables or passages of the source.

Tests used:
[1] = target: T1, hERG potassium ion channel (Homo sapiens, UniProt Q12809); assay: Inhibition of hERG potassium ion channel, whole-cell patch clamp in HEK-293 cells; format: cell-based; conditions: HEK-293 cells stably expressing hERG, tail current, room temperature
T1 construct: expressed in transfected cells
Protocol: Experimental Example 5: Inhibition of hERG Potassium Ion Channel by Compounds
1.1. An HEK-293 cell line stably expressing the hERG potassium channel was cultured at 37° C. with 5% carbon dioxide in DMEM medium containing 10% fetal bovine serum and 0.8 mg/mL G418. The cell density must not exceed 80%.
1.2. Before patch-clamp testing, cells were dissociated with TrypLE™ Express, and 4×10^3 cells were applied to a coverslip. After 18 h, testing was performed.
2.1. Blank control: DMSO stock solution.
2.2. Positive control: An appropriate amount of cisapride was weighed out and prepared into a 10 mM stock solution using dimethyl sulfoxide (DMSO). The stock solution was aliquoted, and the aliquots were stored at −20° C.
2.3. Compound: An appropriate amount of the compound was weighed out, and the required volume of DMSO was calculated using the formula DMSO volume=actual amount×purity (content)/(molecular weight×theoretical concentration), and measured out using a pipette. The compound that had been weighed out was dissolved in the DMSO that had been measured out using a pipette. Meanwhile, the mass of the DMSO was measured. The actual stock solution concentration was calculated based on the amount of DMSO finally used.
Before hERG channel current testing, the blank control stock solution was diluted with an appropriate amount of extracellular liquid to prepare a working solution. The positive control stock solution and the compound stock solution were diluted with an appropriate amount of extracellular liquid to prepare working solutions. […]
Recording electrodes were prepared from capillary glass tubes using a microelectrode puller. […] Under an inverted microscope, a microelectrode manipulator was used to immerse the electrode in extracellular liquid, and the electrode resistance (Rpip) was recorded. […] Then, slow capacitance compensation was performed, and experimental parameters such as membrane capacitance (Cm) and series resistance (Rs) were recorded. […]

[2] = Pharmacokinetic study in mice; format: in vivo, female C57BL/6J mice; conditions: female, C57BL/6J, mouse, plasma; for clearance: read-out: Cl—obs iv (clearance rate) (converted); for Vd: read-out: Vss iv (distribution volume); for bioavailability: po 10 mg/kg vs iv 5 mg/kg, read-out: F% (absolute bioavailability); for Tmax: median, read-out: Tmax po (time to peak plasma concentration); for Cmax: read-out: Cmax po (peak concentration)
Procedure, shortened: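 Female C57BL/6J mice received compound in 5% DMSO/20% (30% solutol)/75% saline at 10 mg/kg intragastrically (sampling 15 min–24 h) or 5 mg/kg intravenously (sampling 5 min–24 h). Plasma was acetonitrile-precipitated with tolbutamide internal standard and analysed by LC-MS/MS. PK parameters were derived by NCA, with Tmax as a median.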

[3] = iv 5 mg/kg, read-out: AUClast iv (0-24 h)
[4] = iv 5 mg/kg, read-out: tz1/2 iv (terminal half-life) (converted)
[5] = po 10 mg/kg, read-out: AUClast po (0-24 h)
[6] = po 10 mg/kg, read-out: tz1/2 po (terminal half-life) (converted)

T1 sequence (Q12809 whole entry): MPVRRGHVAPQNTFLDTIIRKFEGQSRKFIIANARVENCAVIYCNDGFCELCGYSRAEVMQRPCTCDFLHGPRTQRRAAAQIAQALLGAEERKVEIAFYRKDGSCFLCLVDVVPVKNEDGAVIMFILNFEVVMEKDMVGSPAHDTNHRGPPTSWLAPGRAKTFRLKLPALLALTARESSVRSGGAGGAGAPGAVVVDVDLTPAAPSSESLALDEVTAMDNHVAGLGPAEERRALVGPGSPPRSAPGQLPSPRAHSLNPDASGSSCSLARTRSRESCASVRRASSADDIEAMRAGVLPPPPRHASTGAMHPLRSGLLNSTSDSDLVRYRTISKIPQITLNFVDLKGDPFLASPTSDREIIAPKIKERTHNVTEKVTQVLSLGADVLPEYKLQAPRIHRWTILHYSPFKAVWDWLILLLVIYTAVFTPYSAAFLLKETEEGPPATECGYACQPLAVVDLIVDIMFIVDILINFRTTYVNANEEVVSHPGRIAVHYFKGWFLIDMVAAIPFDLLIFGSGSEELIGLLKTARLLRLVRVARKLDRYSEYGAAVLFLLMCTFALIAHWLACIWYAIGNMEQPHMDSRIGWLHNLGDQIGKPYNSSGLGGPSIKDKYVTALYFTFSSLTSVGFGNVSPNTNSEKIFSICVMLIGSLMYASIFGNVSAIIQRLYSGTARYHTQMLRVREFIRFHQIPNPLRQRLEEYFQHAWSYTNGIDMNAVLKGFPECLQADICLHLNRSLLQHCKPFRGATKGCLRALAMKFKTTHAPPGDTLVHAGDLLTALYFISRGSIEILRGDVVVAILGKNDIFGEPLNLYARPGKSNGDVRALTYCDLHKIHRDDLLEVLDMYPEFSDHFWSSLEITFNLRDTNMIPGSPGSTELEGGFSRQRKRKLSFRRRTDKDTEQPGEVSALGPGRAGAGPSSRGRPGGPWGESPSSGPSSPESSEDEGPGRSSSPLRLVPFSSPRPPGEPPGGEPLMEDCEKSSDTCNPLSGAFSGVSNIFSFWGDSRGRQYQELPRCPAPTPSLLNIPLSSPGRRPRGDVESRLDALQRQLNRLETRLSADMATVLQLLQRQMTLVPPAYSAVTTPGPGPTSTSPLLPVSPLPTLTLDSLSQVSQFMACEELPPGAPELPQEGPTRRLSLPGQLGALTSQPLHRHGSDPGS

## C#Cc1ccc(-c2nnc(N[C@@H]3CCCN(C)C3)c(=O)n2C)c(O)c1 [Compound 23, (R)-3-(4-ethynyl-2-hydoxyphenyl)-4-methyl-6-((1-methylpiperidin-3-yl)amino)-1,2,4-triazin-5(4H)-one]
[1]
  IC50: > 10 µM
[2]; [3]
  AUC(0-t): 3230 ng·h/mL
[2]; iv 5 mg/kg
  clearance: 25.7 mL/min/kg
  Vd: 1.65 L/kg
[2]; [4]
  half-life: 55.2 min
[2]
  bioavailability: 85.7%
[2]; po 10 mg/kg
  Tmax: 30 min
  Cmax: 3030 ng/mL
[2]; [5]
  AUC(0-t): 5530 ng·h/mL
[2]; [6]
  half-life: 59 min

## C#Cc1ccc(-c2nnc(N[C@@H]3CCCN(CCO)C3)cc2C2CC2)c(O)c1 [Compound 45, (R)-2-(4-Cyclopropyl-6-((1-(2-hydroxyethyl)piperidin-3-yl)amino)pyridazin-3-yl)-5-ethynylphenol]
[2]; [3]
  AUC(0-t): 11400 ng·h/mL
[2]; iv 5 mg/kg
  clearance: 7.27 mL/min/kg
  Vd: 1.47 L/kg
[2]; [4]
  half-life: 214 min
[2]
  bioavailability: 83.7%
[2]; po 10 mg/kg
  Tmax: 60 min
  Cmax: 4130 ng/mL
[2]; [5]
  AUC(0-t): 19100 ng·h/mL
[2]; [6]
  half-life: 191 min

## C#Cc1ccc(-c2nnc(N[C@@H]3CCCN(C)C3)cc2C(C)C)c(O)c1 [Compound 81, (R)-5-ethynyl-2-(4-isopropyl-6-((1-methylpiperidin-3-yl)amino)pyridazin-3-yl)phenol]
[1]
  IC50: > 10 µM

## C#Cc1ccc(-c2nnc(N[C@@H]3CCCN(C)C3)c(C#N)c2C)c(O)c1 [Compound 103, (R)-6-(4-ethynyl-2-hydroxyphenyl)-5-methyl-3-((1-methylpiperidin-3-yl)amino)pyridazine-4-carbonitrile]
[1]
  IC50: > 10 µM
